Consider 13 compounds from patent US10344017B2, “Pyrrolcarboxamide derivatives for the inhibition of ERK5” (CANCER RESEARCH TECHNOLOGY LIMITED, priority 2014, dated 2019).

Like-named read-outs stand apart in the source and are kept apart here.

One series deals with T1, ERK5 (Homo sapiens, UniProt Q13164).
T1 construct: made in house
The series is described as follows: ERK5 IMAP assay (fluorescence polarisation). The format is biochemical. A general note: Polarisation of emitted light reports the rotation of a fluorescent probe.

Series [1] concerns ERK5 autophosphorylation in HeLa cells. In words: EGF-stimulated HeLa cell assay (ERK5 autophosphorylation, Western blot). The format is cell-based. The note with it: Homo sapiens, average where more than one data point. As for the experimental part:
EGF-Stimulated HeLa Cell Assay
HeLa cells were serum starved overnight followed by treatment with ERK5 inhibitors for 1 hr. Cells were then stimulated with 100 ng/ml EGF for 10 or 15 min. The cells were harvested and lysed at 4° C. for 5-10 min in Laemmli buffer containing Halt protease and […] (Pierce). The lysates were boiled for 10 min at 100° C. Twenty microliters sample was run on 6% or 7.5% Tris-glycine gels and transferred to nitrocellulose. […] The IC50 was calculated from densitometry of top bands.

Series [2] concerns ERK5 (HA-ERK5 wt activated by EGFP-MEK5D, MEF2D-Gal4/Gal4-Luc reporter) in HEK293 cells. In words: Dual-luciferase reporter assay (ERK5 reporter), reverse-transfected HEK293 cells. The note with it: Homo sapiens, HEK293, read-out: ERK 5 Reporter Assay. (Reporter assays use an easily measured gene product as a stand-in for the process of interest.)
Experimental: Trypsinizing of Adherent Cell Colonies
Cells were regularly passaged in order to maintain optimum colony sizes on plates. In order to do this, and to harvest cells for use in the dual-luciferase reporter assay, adherent cells were lifted from tissue culture dishes. Cell media was removed via aspiration, and the cell monolayer was washed with phosphate buffered saline (PBS) solution (10 mL), which was then aspirated.
Reverse Transfection of HEK293 Cells
Preparation of EGFP Control (C3) Working Solution (for 1×96 Well Plate)
Preparation of HEK293 Cells for Reverse Transfection
Trypsinized HEK293 cells were re-suspended in 19 mL of fresh cell media and counted using haemocytometry. Cells were then diluted with fresh cell media to achieve a final cell concentration of 2×10^5 cells/mL. 1237.5 μL and 7425 μL of this cell media was added to the C3 and 5D working solutions respectively. 100 μL of the transfected cells were then aliquoted into the appropriate wells in a 96-well opaque sided tissue culture plate, and incubated at 37° C. for 6 h.
Addition of Compounds to HEK293 Cells
4 compounds was assayed per 96-well plate. For each compound, 1 mL of growth media was added to eight 1.5 mL Eppendorf® tubes. 6 μL of DMSO was added to two tubes for C3 and blank 5D wells, and 6 μL of the relevant compound stock solution was added to the 6 remaining tubes. […] Solutions of drug in media were thoroughly mixed, and 100 μL of the relevant compound was transferred (in triplicate) to the 96-well plate containing transfected HEK293 cells using an electronic multichannel pipette with variable tip spacing. Sealed plates were incubated at 37° C. for 24 h. Final compound concentrations were as follows; 30 μM, 10 μM, 3 μM, 1 μM and 0.3 μM.
15 mL of 1× passive lysis buffer (PLB) was prepared using 5×PLB (Dual-Luciferase Reporter Assay System, Promega® E1960), diluting with H2O. Assay plates prepared were removed from the incubator and the growth media removed by aspiration.
The subject of series [3] is HA-ERK5-ΔP493 (MEK5D-activated, MEF2D-Gal4/Gal4-Luc reporter) in HeLa cells. In words: Truncated dual-luciferase reporter assay, HeLa forward transfection. The format is cell-based. The following applies: Homo sapiens, value with spread. As for the experimental part:
(§1) Truncated Dual-Luciferase Reporter Assay
(§2) HEK293T and HeLa Forward Transfection
HEK293T or HeLa cells were seeded in 96-well luminescence (white) plates (1.68×10^4/well in 84 μl standard culture medium) and incubated overnight at 37° C. in a humidified atmosphere of 5% CO2 in air. Plasmid DNA mastermix containing MEF2D-Gal4 (0.25 μg/μl), Gal4-Luc (1.25 μg/μl) and Renilla luciferase (0.1 μg/μl) was prepared in sterile distilled water. Constitutively-active, EGFP-tagged MEK5 (EGFP-MEK5D; 0.5 μg/μl), an EGFP-tagged construct containing no MEK5D (EGFP-C3; 0.5 μg/μl), and HA-tagged ERK5 with C-terminal truncation (HA-ERK5-ΔP493; 0.51 μg/μl) were diluted separately in sterile distilled water. Plasmid DNA and Lipofectamine 2000 (Invitrogen) were separately diluted in Opti-MEM growth media (reduced serum medium, Invitrogen), and incubated at room temperature for 5 min. Plasmid DNA (Tube A) and Lipofectamine 2000 (Tube B) were then combined and incubated for 20 min at room temperature to complex. […]
(§3) Cell Lysis and Luciferase Quantification
After 24 h incubation in the absence (control) or presence of potential inhibitor, the culture medium was aspirated and cells lysed in 20 μl 1× passive lysis buffer (Dual-Luciferase Reporter Assay System, Promega) for a minimum of 15 min with agitation. […] Cellular inhibition of ERK5 was quantified using the Dual-Luciferase Reporter Assay System (Promega). […] Luciferase reagent (50 μl/well) was added immediately before luminescence detection using a FLUOstar Omega plate reader (BMG Labtech). Stop and Glo reagent (50 μl/well) was subsequently added, and the Renilla luciferase signal (transfection efficiency control) quantified.
The ERK5-specific signalling activity was calculated by subtraction of the EGFP-C3 luciferase signal from the EGFP-MEK5D-induced luminescence. Luminescence in the absence of potential ERK5 inhibitor (DMSO control) was taken as 100% ERK5 activity. […]

For series [4] the following is noted: cited from earlier work.
Series [5] has as its system bFGF-induced angiogenesis. The note with it: matrigel plug; cited from earlier work.
Another series relates to human and murine tumour. The note with it: cited from earlier work.
In series [6] the test system is tumour cell lines and endothelial cells. The following applies: cited from earlier work.
Series [7] concerns HA-ERK5-ΔP493 (MEK5D-activated, MEF2D-Gal4/Gal4-Luc reporter) in HEK293T cells. The series is described as follows: Truncated dual-luciferase reporter assay, HEK293T forward transfection. The format is cell-based. The following applies: Homo sapiens, HEK-293T, average where more than one data point, read-out: Truncated ERK 5 Reporter Assay. As for the experimental part: as §1, §2
Constitutively-active, EGFP-tagged MEK5 (EGFP-MEK5D; 0.5 μg/μl), an EGFP-tagged construct containing no MEK5D (EGFP-C3; 0.5 μg/μl), and HA-tagged ERK5 with C-terminal truncation (HA-ERK5-ΔP493; 0.51 μg/μl) were diluted separately in sterile distilled water. Plasmid DNA and Lipofectamine 2000 (Invitrogen) were separately diluted in Opti-MEM growth media (reduced serum medium, Invitrogen), and incubated at room temperature for 5 min. Plasmid DNA (Tube A) and Lipofectamine 2000 (Tube B) were then combined and incubated for 20 min at room temperature to complex. Cells were then transfected by addition of 16 μl of the respective transfection mixture: 3 wells with EGFP-C3-containing (control) and 21 wells with MEK5D-containing transfection mixture (final volume, 100 μl). Cells were subsequently incubated for 4 h at 37° prior to addition of potential ERK5-inhibitory compounds.
Addition of Compounds to ERK5-Transfected HEK293T or HeLa Cells
Potential ERK5-inhibitory compounds were prepared as a 2× solution by addition of 2 μl compound (or DMSO as control) to 1 ml standard culture medium. Compounds were tested in triplicate at a concentration range of 0.003 μM, 0.01 μM, 0.03 μM, 0.1 μM, 0.3 μM and 1 μM (or 0.03 μM, 0.1 μM, 0.3 μM, 1 μM, 3 μM and 10 μM for BIX02189) by addition of 100 μl 2× solution to 100 μl transfected cells (final DMSO, 0.1% v/v). Cells were incubated for 24 h at 37° C.
as §3
After 24 h incubation in the absence (control) or presence of potential inhibitor, the culture medium was aspirated and cells lysed in 20 μl 1× passive lysis buffer (Dual-Luciferase Reporter Assay System, Promega) for a minimum of 15 min with agitation. Lysates were further processed immediately or stored at −80° C. Cellular inhibition of ERK5 was quantified using the Dual-Luciferase Reporter Assay System (Promega). Luciferase assay buffer/Luciferase assay substrate and Stop and Glo assay buffer/Stop and Glo substrate were prepared according to the manufacturer's instructions. Luciferase reagent (50 μl/well) was added immediately before luminescence detection using a FLUOstar Omega plate reader (BMG Labtech). Stop and Glo reagent (50 μl/well) was subsequently added, and the Renilla luciferase signal (transfection efficiency control) quantified.
The ERK5-specific signalling activity was calculated by subtraction of the EGFP-C3 luciferase signal from the EGFP-MEK5D-induced luminescence. Luminescence in the absence of potential ERK5 inhibitor (DMSO control) was taken as 100% ERK5 activity. […] Unless stated otherwise, data are mean±standard deviation of three independent experiments.

[8] abbreviates: average (e.g. geometric mean) where more than one data point, read-out: ERK5 IC50.
[9] abbreviates: value ± spread, second part of table, read-out: ERK5 IMAP IC50.

T1 sequence (Q13164 whole entry): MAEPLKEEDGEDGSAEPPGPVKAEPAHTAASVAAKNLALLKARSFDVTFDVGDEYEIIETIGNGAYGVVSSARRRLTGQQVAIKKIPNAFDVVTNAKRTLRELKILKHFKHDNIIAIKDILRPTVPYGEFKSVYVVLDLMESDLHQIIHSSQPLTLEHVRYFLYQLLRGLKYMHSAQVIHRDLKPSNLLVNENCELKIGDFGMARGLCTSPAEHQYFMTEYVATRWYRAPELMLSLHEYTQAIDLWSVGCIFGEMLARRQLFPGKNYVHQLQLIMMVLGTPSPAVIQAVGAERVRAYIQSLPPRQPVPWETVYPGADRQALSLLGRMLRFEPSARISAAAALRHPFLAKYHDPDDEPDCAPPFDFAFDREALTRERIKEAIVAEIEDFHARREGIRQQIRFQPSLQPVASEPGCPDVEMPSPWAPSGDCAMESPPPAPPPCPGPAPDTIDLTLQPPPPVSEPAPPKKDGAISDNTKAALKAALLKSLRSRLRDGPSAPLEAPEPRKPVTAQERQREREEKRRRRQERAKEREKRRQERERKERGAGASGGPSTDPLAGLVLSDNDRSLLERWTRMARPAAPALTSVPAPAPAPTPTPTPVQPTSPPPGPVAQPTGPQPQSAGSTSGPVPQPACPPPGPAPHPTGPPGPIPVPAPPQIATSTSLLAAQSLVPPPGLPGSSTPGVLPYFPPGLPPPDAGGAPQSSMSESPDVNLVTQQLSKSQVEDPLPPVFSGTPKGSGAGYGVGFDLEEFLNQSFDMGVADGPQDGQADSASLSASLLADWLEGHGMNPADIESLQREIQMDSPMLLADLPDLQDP

For the compound `COc1ccc(Cl)c(C(=O)c2c[nH]c(C(=O)NC3CCN(C)CC3)c2)c1F` [Example 70, 4-(6-chloro-2-fluoro-3-methoxybenzoyl)-N-(1-methylpiperidin-4-yl)-1H-pyrrole-2-carboxamide], the IC50 at ERK5 (setting [8]) is 0.0579 µM; in series [1] it was 1.7 µM; in [2] it was 0.477 µM.
Consider `COc1ccc(Cl)c(C(=O)c2c[nH]c(C(=O)Nc3cccnc3)c2)c1F` [Example 72, 4-(6-chloro-2-fluoro-3-methoxybenzoyl)-N-(pyridin-3-yl)-1H-pyrrole-2-carboxamide], for which the IC50 amounted to 0.0908 µM on ERK5 (setting [8]), 1.9 µM in [1] and 2.98 µM in series [2].
Take `Cn1cc(NC(=O)c2cc(C(=O)c3c(F)cccc3F)c[nH]2)cn1` [Example 285, 4-(2,6-Difluorobenzoyl)-N-(1-methyl-1H-pyrazol-4-yl)-1H-pyrrole-2-carboxamide]: the IC50 on ERK5 (setting [9]) was found to be 1.56 ± 0.05 µM; in series [3], 0.671 µM.
`COc1ccc(Cl)c(C(=O)c2c[nH]c(C(=O)Nc3ccc(N4CCNCC4)nc3)c2)c1F` [Example 69, 4-(6-Chloro-2-fluoro-3-methoxybenzoyl)-N-(6-(piperazin-1-yl)pyridin-3-yl)-1H-pyrrole-2-carboxamide]: the IC50 was determined as 0.0157 µM at ERK5 (setting [8]) and 0.7 µM in series [1].
On the same counts, the results for `O=C(Nc1cnc(NC2CCN(C3CC3)CC2)nc1)c1cc(C(=O)c2c(Cl)ccc(Cl)c2F)c[nH]1` [Example 25, N-(2-((1-Cyclopropylpiperidin-4-yl)amino)pyrimidin-5-yl)-4-(3,6-dichloro-2-fluorobenzoyl)-1H-pyrrole-2-carboxamide] are 0.0497 µM and 5.1 µM.
Regarding `O=C(Nc1cnn(C2CNC2)c1)c1cc(C(=O)c2c(Cl)ccc(Cl)c2F)c[nH]1` [Example 54, N-(1-(Azetidin-3-yl)-1H-pyrazol-4-yl)-4-(3,6-dichloro-2-fluorobenzoyl)-1H-pyrrole-2-carboxamide], the IC50 at ERK5 (setting [8]) came out at 0.0317 µM; in [1] it was 0.14 µM.
`Cn1cc(NC(=O)c2cc(C(=O)c3ccccc3F)c[nH]2)cn1` [Example 287, 4-(2-Fluorobenzoyl)-N-(1-methyl-1H-pyrazol-4-yl)-1H-pyrrole-2-carboxamide]: the IC50 worked out at 7.55 ± 0.3 µM on ERK5 (setting [9]) and 3.2 µM in series [3].
Take `CN(c1ccc(NC(=O)c2cc(C(=O)c3c(Cl)ccc(Cl)c3F)c[nH]2)cn1)C1CCNCC1` [Example 107, 4-(3,6-Dichloro-2-fluorobenzoyl)-N-(6-(methyl(piperidin-4-yl)amino)pyridin-3-yl)-1H-pyrrole-2-carboxamide]: the IC50 at ERK5 (setting [8]) was found to be 0.0246 µM; in series [1] it was 0.45 µM.
Take `O=C(Nc1cccnc1)c1cc(C(=O)c2c(Cl)ccc(Cl)c2F)c[nH]1` [Example 172, 4-(3,6-Dichloro-2-fluorobenzoyl)-N-(pyridin-3-yl)-1H-pyrrole-2-carboxamide]: the IC50 on ERK5 (setting [8]) is 0.0656 µM; in [1] it was 0.19 µM; in [2], 0.599 µM.
Turning to `CCOc1cc(N2CCC(O)CC2)ccc1Nc1ncc2c(n1)N(C)c1ccccc1C(=O)N2C` [XMD8-92], the tolerability in mice result in series [4] is reported as “well tolerated”. Moreover, the blood vessel formation entry in series [5] was “completely abrogated blood vessel formation”. The tumour growth result in the series on human and murine tumour (human and murine tumours in mice) was “pronounced retardation of both human and murine tumour growth”. Further, the “inhibition of tumour ERK5” value with human and murine tumour (mice) is on record as “inhibited tumour ERK5”. Also, the anti-proliferative activity result in series [6] is listed as “modest anti-proliferative activity”.
Consider `CCN(CC)CCNc1ncc(NC(=O)c2cc(C(=O)c3c(Cl)ccc(Cl)c3F)c[nH]2)cn1` [Example 100, 4-(3,6-Dichloro-2-fluorobenzoyl)-N-(2-((2-(diethylamino)ethyl)amino)pyrimidin-5-yl)-1H-pyrrole-2-carboxamide], for which the IC50 at ERK5 (setting [8]) was 0.0193 µM; in series [1] it was 0.49 µM; in series [7] it was 0.151 µM.
`Cc1cccc(F)c1C(=O)c1c[nH]c(C(=O)Nc2cnn(C)c2)c1` [Example 286, 4-(2-Fluoro-6-methylbenzoyl)-N-(1-methyl-1H-pyrazol-4-yl)-1H-pyrrole-2-carboxamide]: the IC50 at ERK5 (setting [9]) stood at 7.07 ± 0.02 µM; in series [3] it was 2.48 µM.
As for `O=C(Nc1ccc(OC2CCNCC2)nc1)c1cc(C(=O)c2c(Cl)ccc(Cl)c2F)c[nH]1` [Example 109, 4-(3,6-Dichloro-2-fluorobenzoyl)-N-(6-(piperidin-4-yloxy)pyridin-3-yl)-1H-pyrrole-2-carboxamide], the IC50 on ERK5 (setting [8]) was 0.0108 µM; in [1], 0.05 µM; in [7], 0.092 µM.
